Converted amounts (≈) assume the structure as drawn. “And” between values parts separate entries of the source, which are not always exact repeats. Equal entries are not always repeated. Where two headings read alike, the source gives them in different places. One block for each molecule: values may come before it.
Tests used:
A. fumigatus isolate #1 = assay: Antifungal susceptibility testing, broth dilution (NCCLS M38-A); type: cell-based; details: Aspergillus fumigatus, 80% reduction in turbidity
Procedure: (§1) Antifungal susceptibility testing was accomplished according to the methods outlined in the National Committee for Clinical Laboratory Standards, M38-A “Reference Method for Broth Dilution Antifungal Susceptibility Testing of Conidium-Forming Filamentous Fungi; Approved Standard.” This includes testing in RPMI-1640 with glutamine and without bicarbonate, an inoculum size of 0.4-5×10^4, and incubation at 30 or 35° C. for 48 hours. […] Drug concentrations were 0.03-16 μg/ml for the investigational compounds, 0.015-8 μg/ml for itraconazole and griseofulvin.
(§2) The minimum lethal concentration (MLC) was determined by plating […] from the MIC concentration and each concentration above the MIC. […] When a MIC was obtained, a minimum fungicidal concentration (MFC) was determined to assess the fungistatic/fungicidal nature of the compound. […] The compound is scored as fungistatic if the cells are able to resume growth and fungicidal if no regrowth is possible because the compound had killed the organisms.

T. rubrum isolate #1 = assay: as above; type: cell-based, Trichophyton rubrum; details: T. rubrum isolate #1; for MIC: 80% reduction in turbidity
Procedure: as §1, §2

T. rubrum isolate #2 = assay: as above; type: cell-based, Trichophyton rubrum; details: for MIC: 80% reduction in turbidity
Procedure: as §1, §2

[1] = system: T. mentagrophytes isolate #1; assay: as above; type: cell-based, Trichophyton mentagrophytes; details: for MIC: 80% reduction in turbidity
Procedure: as §1, §2

[2] = system: T. mentagrophytes isolate #2; assay: as above; type: cell-based, Trichophyton mentagrophytes; details: 80% reduction in turbidity
Procedure: as §1, §2

E. floccosum isolate #1 = assay: as above; type: cell-based, Epidermophyton floccosum; details: 80% reduction in turbidity
Procedure: as §1, §2

E. floccosum isolate #2 = assay: as above; type: cell-based, Epidermophyton floccosum
Procedure: as §1, §2

A. fumigatus isolate #2 = assay: as above; type: cell-based; details: Aspergillus fumigatus, 80% reduction in turbidity
Procedure: as §1, §2

[3] = system: DU-145 human prostate tumor; assay: DU-145 Human Prostate Tumor Xenograft Model; type: in vivo, nude mice; details: Taxotere alone
Procedure: Male mice were implanted s.c. by trocar with fragments of DU-145 tumors harvested from s.c. growing tumors in nude male mice hosts. When the tumors reached ˜5 mm×5 mm ( at about 13-17 days) the animals were matched into treatment and control groups. The remainder of the study proceeded as for the HT-29 model, using taxotere as the standard chemotherapy agent.
In this model unless otherwise noted for the individual study, test compound was administered via the intraperitoneal route on Days 1, 3, 5, 8 and 11 (q3d×5); taxotere was administered intravenously on Days 1, 3 and 5 (q2d×3).
The study involved an assessment of t-butyl-phenyalhistin alone and in combination with taxotere.

bovine brain tubulin = assay: [^3H]CLC binding to tubulin and competition assay
Procedure: [^3H]CLC binding to tubulin was evaluated by the ultrafiltration method of Takahashi, M., et al., Biochim. Biophys. […] The concentration of unbound [^3H]CLC in the filtrates was determined using a EcoLite™(+) liquid scintillator from ICN Pharmaceuticals Inc. (Costa Mesa, Calif.). Specific bound [^3H]CLC concentrations were determined by adding an excess (×100) of unlabeled CLC to the reaction mixture.
For the competition assay, bovine brain tubulin (0.2 mg/ml) was incubated in the microtubule assembly buffer with 0.5 μM [^3H]CLC and various concentrations of competitors for 20 min at 37° C. [^3H]CLC binding was measured as described above.

[4] = system: microtubules in A549 cells; assay: Immunofluorescence staining of microtubules; type: cell-based, human; details: 6 hours incubation
Procedure: Immunocytochemical staining was performed using the method described by Yahara, I. et al., Cell (1978) 15, 251-259. A549 cells were cultured on glass coverslips and incubated with the test drug for 6 hours. The cells were then fixed with 3.7% formaldehyde for 30 min, permeabilized with 0.2% Triton X-100 for 5 min, and incubated with a mouse monoclonal antibody against α-tubulin (Calbiochem®, Oncogene Research Products, Cambridge, Mass.), followed by incubation with fluorescein isothiocyanate-conjugated goat anti-mouse IgG from Cosmo Bio Co., (Tokyo, Japan), and the cells were examined under an immunofluorescent microscope.

[5] = system: MES-SA (Taxol Sensitive) human uterine sarcoma tumor cell line; assay: Drug resistant cell line pair, cytotoxicity; type: cell-based; details: CsA Pretreat versus No CsA
Text: MES-SA (Taxol Sensitive) and MES-SA DX (Taxol Resistant). This cell line expresses elevated mdr-1 mRNA and P-glycoprotein (an extrusion pump mechanism). Pretreatment with cyclosporin-A (CsA) blocks P-glycoprotein and reinstates activity in the resistant cell line for those compounds for which the resistance is due to elevated P-glycoprotein.

[6] = system: tubulin in Human umbilical vein endothelial cells (HuVEC); assay: Action on microtubule function, staining for α-tubulin; type: cell-based; details: 2 μM, thirty minutes exposure
HuVEC monolayer = HuVEC monolayer permeability to FITC-Dextran; type: cell-based, human; details: FITC-Dextran
Text: This vascular collapse is preceded by a rapid induction of vascular cell permeability initially to electrolytes and soon after to large molecules. The enhanced permeability of HuVEC cells to a fluorescent-labeled dextran is used as a proxy assay for vascular collapse.

[7] = Trichophyton rubrum, read-out: MIC
[8] = Trichophyton mentagrophytes, read-out: MIC

MIC (A. fumigatus isolate #1): 1 µg/mL (≈ 1.42 µM)
SMILES: CCC(C)n1ncn(-c2ccc(N3CCN(c4ccc(OCC5COC(Cn6cncn6)(c6ccc(Cl)cc6Cl)O5)cc4)CC3)cc2)c1=O (centres unmarked) [itraconazole, reference compound]

SMILES: CC(C)(C)c1[nH]cnc1/C=C1\NC(=O)[C@H](Cc2ccccc2)NC1=O [NPI2460]
MFC (T. rubrum isolate #1): 0.125 µg/mL (≈ 0.369 µM)
MIC (T. rubrum isolate #1): <0.03 µg/mL
MFC (T. rubrum isolate #2): <0.03 µg/mL
MIC (T. rubrum isolate #2): <0.03 µg/mL
MFC [1]: >16 µg/mL
MIC [1]: 4 µg/mL (≈ 11.8 µM)
MIC [2]: >16 µg/mL
MIC (E. floccosum isolate #1): >16 µg/mL
MICs and MFCs (E. floccosum isolate #2): >16 µg/mL

MIC (A. fumigatus isolate #2): 0.5 µg/mL (≈ 1.42 µM)
MIC (T. rubrum isolate #1; [7]): 0.5 µg/mL (≈ 1.42 µM)
MIC (T. rubrum isolate #2; [7]): < 0.015 µg/mL
MIC [1, 8]: 1 µg/mL (≈ 2.83 µM)
MIC [2, 8]: 2 µg/mL (≈ 5.67 µM)
MIC (E. floccosum isolate #1; Epidermophyton floccosum, read-out: MIC): 2 µg/mL (≈ 5.67 µM)
SMILES: COC1=CC(=O)C[C@@H](C)[C@]12Oc1c(Cl)c(OC)cc(OC)c1C2=O [griseofulvin, reference compound]
MFC (E. floccosum isolate #2; Epidermophyton floccosum, read-out: MICs and MFCs): 4 µg/mL (≈ 11.3 µM)

SMILES: CC(=O)O[C@@]12CO[C@@H]1C[C@H](O)[C@@]1(C)C(=O)[C@H](O)C3=C(C)[C@@H](OC(=O)[C@H](O)[C@@H](NC(=O)OC(C)(C)C)c4ccccc4)C[C@@](O)([C@@H](OC(=O)c4ccccc4)[C@H]21)C3(C)C [Taxotere, reference compound]
NCI established criterion for a positive effect (TGA 58%) [3]: did not reach the NCI established criterion

effect on CLC binding to tubulin (bovine brain tubulin): slightly enhanced
SMILES: CC[C@]1(O)C[C@@H]2CN(CCc3c([nH]c4ccccc34)[C@@](C(=O)OC)(c3cc4c(cc3OC)N(C)[C@H]3[C@@](O)(C(=O)OC)[C@H](OC(C)=O)[C@]5(CC)C=CCN6CC[C@]43[C@@H]65)C2)C1 [VLB, vinblastine, reference compound]

SMILES: CC(=O)O[C@H]1C(=O)[C@@]2(C)[C@H]([C@H](OC(=O)c3ccccc3)[C@]3(O)C[C@H](OC(=O)[C@H](O)[C@@H](NC(=O)c4ccccc4)c4ccccc4)C(C)=C1C3(C)C)[C@]1(OC(C)=O)CO[C@@H]1C[C@@H]2O [Taxol, paclitaxel, reference compound]
microtubule structure (anti α-tubulin staining) [4]: thick microtubule bundles and multiple bright fluorescent aster formation
Ratio No CsA [5]: 0.6 and 0.4
microtubule depolymerization [6]: did not induce microtubule depolymerization
HuVEC monolayer permeability (HuVEC monolayer): inactive

Reference: patent US20040102454A1, “Phenylahistin and the phenylahistin analogs, a new class of anti-tumor compounds” (priority 1998, published 2004)
